Where two headings read alike, the source gives them in different places.
Legend:
[1] = test system: A/California/07/2009 (H1N1); assay: Antiviral activity (drug efficacy evaluation by concentration) against A/California/07/2009 (H1N1); format: cell-based, A type influenza virus; settings: Influenza A virus
A/Perth/16/2009 (H3N2) = assay: Antiviral activity (drug efficacy evaluation by concentration) against A/Perth/16/2009 (H3N2); format: cell-based, A type influenza virus; settings: Influenza A virus
B/Florida/04/2006 = assay: Antiviral activity (drug efficacy evaluation by concentration) against B/Florida/04/2006; format: cell-based, B type influenza virus
[2] = CC50, third EC50/CC50 column pair (c7), beside the EC50 of c6
[3] = CC50 B/Florida/04/2006, cytotoxicity in the B/Florida/04/2006 assay
[4] = H3N2, A/Perth/16/2009 (H3N2), read-out: EC50 A/Perth/16/2009 (H3N2)
[5] = H1N1, A/California/07/2009 (H1N1), read-out: EC50 A/California/07/2009 (H1N1)

SMILES | CC50 (in vitro; CC50, beside the EC50 of c2) [µM] | CC50 (in vitro; CC50, beside the EC50 of c4) [µM] | CC50 (in vitro; [2]) [µM] | melting point [°C] | EC50 ([1]; H1N1, read-out: EC50) [µM] | CC50 (in vitro; [3]) [µM] | EC50 (A/Perth/16/2009 (H3N2); [4]) [µM] | EC50 [1, 5] [µM] | EC50 (B/Florida/04/2006) [µM] | EC50 (A/Perth/16/2009 (H3N2); H3N2, read-out: EC50) [µM] | EC50 (B/Florida/04/2006; read-out: EC50 B/Florida/04/2006, B/Florida/04/2006) [µM]
Fc1ccc(/C=C/c2nnc(Cc3cccc(Cl)c3)o2)c(Cl)c1 [Compound 179, (E)-2-(2-chloro-4-fluorostyryl)-5-(3-chlorobenzyl)-1,3,4-oxadiazole] | > 50 | > 50 | > 50 | 104 | 0.632 |  |  |  |  |  | 
CC(=Cc1ccccc1C)c1nnc(Cc2ccc(Br)cc2)o1 [Compound 138, 2-(4-bromobenzyl)-5-(1-(o-tolyl)prop-1-en-2-yl)-1,3,4-oxadiazole] | > 50 | > 50 | > 50 |  | 0.161 |  |  |  |  |  | 
O=C(c1cccc(-c2ccccc2)c1)c1nnc(Cc2ccc(Br)cc2)o1 [Compound 69, [1,1′-biphenyl]-3-yl(5-(4-bromobenzyl)-1,3,4-oxadiazol-2-yl)methanone] |  |  |  | 166.4 |  | > 50 | 49.3 | > 50 |  |  | 
Fc1ccc(/C=C/c2nnc(Cc3cc(Cl)ccn3)o2)c(Cl)c1 [Compound 206, (E)-2-(2-chloro-4-fluorostyryl)-5-((4-chloropyridin-2-yl)methyl)-1,3,4-oxadiazole] | > 50 | > 50 | > 50 |  |  |  |  |  | 2.26 | 1.28 | 
c1ccc(-c2ccccc2CSc2nnc(-c3cnn(-c4ccccc4)c3)o2)cc1 [Compound 36, 2-(([1,1′-biphenyl]-2-ylmethyl)thio)-5-(1-phenyl-1H-pyrazol-4-yl)-1,3,4-oxadiazole] |  |  |  | 114.2 |  | > 50 | > 50 |  |  |  | 
Cc1ccccc1CC1(c2nnc(Cc3ccc(Br)cc3)o2)CC1 [Compound 129, 2-(4-bromobenzyl)-5-(1-(2-methylbenzyl)cyclopropyl)-1,3,4-oxadiazole] | > 50 | > 50 | > 50 | 72.2 |  |  |  |  |  | 6.13 | 
CC(C)c1ccccc1/C=C/c1nnc(Cc2ccc(Br)cc2)o1 [Compound 82, (E)-2-(4-bromobenzyl)-5-(2-isopropylstyryl)-1,3,4-oxadiazole] | > 50 | > 50 | > 50 | 91.6 |  |  |  |  | > 50 |  | 
Brc1ccc(Nc2nnc(/C=C/c3ccccc3-c3ccccc3)o2)cc1 [Compound 124, (E)-5-(2-([1,1′-biphenyl]-2-yl)vinyl)-N-(4-bromophenyl)-1,3,4-oxadiazol-2-amine] | > 50 | > 50 | > 50 | 239.3 |  |  |  |  |  | > 50 | 
Cc1cc(Nc2nnc(CCc3ccccc3C)o2)ccc1Br [Compound 90, N-(4-bromo-3-methylphenyl)-5-(2-methylphenethyl)-1,3,4-oxadiazol-2-amine] | > 50 | > 50 | > 50 | 122.7 | > 50 |  |  |  |  | > 50 | 
Cc1cccc(C)c1CSc1nnc(Cn2nc(C)c(Br)c2C)o1 [Compound 40, 2-((4-bromo-3,5-dimethyl-1H-pyrazol-1-yl)methyl)-5-((2,6-dimethylbenzyl)thio)-1,3,4-oxadiazole] |  |  |  | 106.3 |  | > 50 |  | > 50 |  |  | 
Cc1ncccc1/C=C/c1nnc(Cc2cccc(Br)c2)o1 [Compound 204, (E)-2-(3-bromobenzyl)-5-(2-(2-methylpyridin-3-yl)vinyl)-1,3,4-oxadiazole] | > 50 | > 50 | > 50 |  |  |  |  |  | 2.5 |  | 
Cc1nn(Cc2nnc(SCc3ccncc3-c3ccccc3)o2)c(C)c1Br [Compound 16, 2-((4-bromo-3,5-dimethyl-1H-pyrazol-1-yl)methyl)-5-(((3-phenylpyridin-4-yl)methyl)thio)-1,3,4-oxadiazole] |  |  |  |  |  | > 50 | > 50 |  |  |  | > 50
Fc1ccc(/C=C/c2nnc(Cc3ccc(F)c(Cl)c3)o2)c(Cl)c1 [Compound 159, (E)-2-(3-chloro-4-fluorobenzyl)-5-(2-chloro-4-fluorostyryl)-1,3,4-oxadiazole] | > 50 | > 50 | > 50 | 142.2 | > 50 |  |  |  |  | 39.7 | 
Fc1cc(Nc2nnc(/C=C/c3ccccc3Br)o2)ccc1Br [Compound 88, (E)-N-(4-bromo-3-fluorophenyl)-5-(2-bromostyryl)-1,3,4-oxadiazol-2-amine] | > 50 | > 50 | > 50 | 225.1 | > 50 |  |  |  |  | > 50 | 
CC(C)c1ccccc1/C=C/c1nc(Cc2ccc(Br)cc2)no1 [Compound 175, (E)-3-(4-bromobenzyl)-5-(2-isopropylstyryl)-1,2,4-oxadiazole] | > 50 | > 50 | > 50 | 81.5 |  |  |  |  |  |  | 
Brc1ccc(Cc2nnc(/C=C/c3ccccc3Br)o2)cc1 [Compound 128, (E)-2-(4-bromobenzyl)-5-(2-bromostyryl)-1,3,4-oxadiazole] | > 50 | > 50 | > 50 | 156.1 |  |  |  |  |  |  | 
O=C(Nc1ccc(Br)cc1)c1nnc(SCc2ccccc2-c2ccccc2)o1 [Compound 72, 5-(([1,1′-biphenyl]-2-ylmethyl)thio)-N-(4-bromophenyl)-1,3,4-oxadiazole-2-carboxamide] |  |  |  |  |  | 25 | 23.5 | 0.73 |  |  | 
c1ccc(-c2nnc(SCc3ccccc3-c3ccccc3)o2)cc1 [Compound 43, 2-(([1,1′-biphenyl]-2-ylmethyl)thio)-5-phenyl-1,3,4-oxadiazole] |  |  |  |  |  | > 50 | > 50 | > 50 |  |  | 
Fc1cc(Cl)ccc1/C=C/c1nnc(Cc2cccc(Br)c2)o1 [Compound 190, 2-(3-bromobenzyl)-5-(4-chloro-2-fluorostyryl)-1,3,4-oxadiazole] |  | 40.1 |  | 107.2 |  |  |  |  |  |  | 
CC(C)c1ccc(/C=C/c2nnc(Cc3ccc(Br)cc3)o2)cc1 [Compound 154, 2-(4-bromobenzyl)-5-(4-isopropylstyryl)-1,3,4-oxadiazole] | > 50 | > 50 | > 50 | 139.8 |  |  |  |  | > 50 |  | 
Fc1ccc(/C=C/c2nnc(Nc3ccc(Br)c(F)c3)o2)c(Cl)c1 [Compound 160, (E)-N-(4-bromo-3-fluorophenyl)-5-(2-chloro-4-fluorostyryl)-1,3,4-oxadiazol-2-amine] | > 50 | > 50 | > 50 | 195.7 | > 50 |  |  |  |  | > 50 | 
Cc1cccc(/C=C/c2nnc(Cc3ccc(Br)cc3)o2)c1C [Compound 150, 2-(4-bromobenzyl)-5-(2,3-dimethylstyryl)-1,3,4-oxadiazole] | > 50 | > 50 | > 50 | 126.9 |  |  |  |  |  | > 50 | 
CC(C)c1ccccc1/C=C/c1nnc(Nc2ccc(Br)cc2)o1 [Compound 117, (E)-N-(4-bromophenyl)-5-(2-isopropylstyryl)-1,3,4-oxadiazol-2-amine] | > 50 | > 50 |  | 225.6 | 31.4 |  |  |  |  | 43.5 | 
Clc1ccc2oc(-c3nnc(Cc4ccc(Br)cc4)o3)cc2c1 [Compound 157, 2-(4-bromobenzyl)-5-(5-chlorobenzofuran-2-yl)-1,3,4-oxadiazole] | > 50 | > 50 | > 50 | 149.7 |  |  |  |  |  |  | 
Brc1ccc(Nc2nnc(/C=C/c3ccccc3Oc3ccccc3)o2)cc1 [Compound 125, (E)-N-(4-bromophenyl)-5-(2-phenoxystyryl)-1,3,4-oxadiazol-2-amine] | > 50 | > 50 | > 50 |  | 36.7 |  |  |  |  | > 50 | 
Clc1cccc(Cl)c1/C=C/c1nnc(Cc2ccc(Br)cc2)o1 [Compound 168, 2-(4-bromobenzyl)-5-(2,6-dichlorostyryl)-1,3,4-oxadiazole] | > 50 | > 50 | > 50 | 139.3 |  |  |  |  |  |  | 
OC(c1cccc(-c2ccccc2)c1)c1nnc(Cc2ccc(Br)cc2)o1 (stereo not drawn) [Compound 70, [1,1′-biphenyl]-3-yl(5-(4-bromobenzyl)-1,3,4-oxadiazol-2-yl)methanol] |  |  |  | 137.6 |  | > 50 | 37.5 |  |  |  | 
Cc1ccccc1CCc1nnc(Nc2ccc(Br)cc2)o1 [Compound 89, N-(4-bromophenyl)-5-(2-methylphenethyl)-1,3,4-oxadiazol-2-amine] | > 50 | > 50 | > 50 | 153.5 | > 50 |  |  |  |  | 48.4 | 
Cc1cccc(C)c1/C=C/c1nnc(Cc2ccc(Br)cc2)o1 [Compound 134, 2-(4-bromobenzyl)-5-(2,6-dimethylstyryl)-1,3,4-oxadiazole] | > 50 | > 50 | > 50 |  | > 50 |  |  |  |  | > 50 | 
Clc1cccc(/C=C/c2nnc(Cc3ccc(Br)cc3)o2)c1 [Compound 167, 2-(4-bromobenzyl)-5-(3-chlorostyryl)-1,3,4-oxadiazole] | > 50 | > 50 | > 50 | 105.1 |  |  |  |  |  |  | 

Source: patent publication US11149033B2, “Heteroaryl compound, enantiomer, diastereomer or pharmaceutically acceptable salt thereof, and antiviral composition containing same as active ingredient” (priority 2016, dated 2021)
